According to US11406613B2, “Treatment of osteoarthritis” (ST GEORGE'S HOSPITAL MEDICAL SCHOOL, priority 2016, dated 2022):
Read-outs that look alike come from different tables or passages of the source.

Key:
knee OA = details: Chappell et al., Pain 2009; cited from earlier work
hand OA participants [1] = details: per-protocol; for Numerical Rating Scale (NRS) 90 days (95% CI) / Numerical Rating Scale (NRS) Baseline (95% CI): imputed data; for Numerical Rating Scale (NRS) Baseline (95% CI): scale 0-10; for Numerical Rating Scale (NRS) Mean diff (95% CI): baseline to 90 days
Source text: (§1) Participants were issued with a diary card with their medication to be completed for VAS pain rating on a daily basis. […] The protocol recommended that participants should record use of rescue medication (paracetamol up to 4 g daily) in their diary card. […] All other care was at the discretion of the treating physicians.
Additional secondary outcomes included the Numerical Rating Scale (NRS) pain rating 0-10, the Hospital Anxiety and Depression Scale (HADS) (Bjelland et al., Journal of Psychosomatic Research. 2002; 52(2): 69-77) and pain sensitisation measures in the three treatment groups at baseline and at week 13. Operational definitions for all end points, including time points for comparisons, were specified prospectively in the trial protocol.
(§2) The AUSCAN pain, stiffness and function outcomes are presented as means and 95% confidence intervals. Analysed between group were comparisons by the Mann Whitney U test. Baseline characteristics in each group are shown by mean values and standard deviation. […] IBM SPSS Statistics 21.0 was used for all analyses and graphs were plotted using Graphpad Prism version 6.

hand OA participants [2] = details: for AUSCAN pain score 90 days (95% CI) / AUSCAN pain score Baseline (95% CI): per-protocol population; for AUSCAN pain score 90 days (95% CI) / AUSCAN pain score Baseline (95% CI) / AUSCAN function 90 days (95% CI) / AUSCAN stiffness 90 days (95% CI) / AUSCAN function Baseline (95% CI) / AUSCAN stiffness Baseline (95% CI): imputed data; for AUSCAN pain score 90 days (95% CI): pregabalin up to 300 mg, duloxetine up to 60 mg daily; for AUSCAN pain score Baseline (95% CI): 5 questions 0-100 mm, total of 500; for AUSCAN function 90 days (95% CI) / AUSCAN stiffness 90 days (95% CI) / AUSCAN function Baseline (95% CI) / AUSCAN stiffness Baseline (95% CI) / AUSCAN function Mean diff (95% CI) / AUSCAN stiffness Mean diff (95% CI) / AUSCAN pain score Mean diff (95% CI): per-protocol; for AUSCAN stiffness Baseline (95% CI): one question 0-100 mm; for AUSCAN function Mean diff (95% CI) / AUSCAN stiffness Mean diff (95% CI): baseline to 90 days; for AUSCAN pain score Mean diff (95% CI): change between baseline and 90 days (13 weeks), primary endpoint
Source text: Inclusion criteria: Participants were eligible for screening if they were aged 40-75 years, had hand OA diagnosed by ACR criteria (Altman et al., Arthritis and Rheumatism 1990; 33(11): 1601-10) confirmed by a rheumatologist and experiencing pain of at least 5 or above on a numerical rating scale (NRS) of 0-10. […] All participants underwent baseline hand radiography to confirm radiographic evidence of OA. The radiographic findings were used to confirm radiographic evidence of OA from ACR criteria of at least 3 joints affected, with a Kellgren-Lawrence grade (Kellgren et al., Ann Rheum Dis 1957; 16(4): 494-502) of 2 or above in at least 3 affected joints. Radiographic scoring was performed after a training session independently by 2 researchers.
Participants were issued with a diary card with their medication to be completed for VAS pain rating on a daily basis. […] The protocol recommended that participants should record use of rescue medication (paracetamol up to 4 g daily) in their diary card.
The primary end point was the Australian and Canadian Hand Osteoarthritis Index (AUSCAN) rating scale 3.1 with sub-scales for pain, which is a validated measure of hand pain, stiffness and function in clinical trials of hand OA (Bellamy et al., Arthritis Care Res (Hoboken) 2015; 67(7): 972-80). Based on IMMPACT guidelines for pain trials (Dworkin et al., Pain 2005; 113: 9-19), primary end-point data for the AUSCAN pain sub-scale was collected. The primary endpoint was change in AUSCAN pain between baseline and 13 weeks. Patient-reported symptoms were recorded in three domains and participants asked to record their scores based on symptoms ‘in the last 48 hours’. Pain reporting consists of 5 questions, rated at 0-100 mm each, for pain in the hands at rest, gripping objects, turning and squeezing objects, scoring out of a total of 500.
For secondary outcome data, the AUSCAN stiffness and function scales were recorded; there was one question for stiffness symptoms (0-100 mm) and 3 questions testing function (0-100 mm each). Additional secondary outcomes included the Numerical Rating Scale (NRS) pain rating 0-10, the Hospital Anxiety and Depression Scale (HADS) (Bjelland et al., Journal of Psychosomatic Research. 2002; 52(2): 69-77) and pain sensitisation measures in the three treatment groups at baseline and at week 13. Operational definitions for all end points, including time points for comparisons, were specified prospectively in the trial protocol.
as §2

hand OA participants [3] = details: for Consumption of rescue medication (total): paracetamol up to 4 g daily as rescue medication, per-protocol population; for Average use of paracetamol as rescue medication compared with placebo: result in words
Source text: as §1

hand OA participants [4] = details: for Side effects: Total (adverse events recorded): all systems, whole treatment group; for Participants discontinuing treatment / withdrawing because of (serious) adverse events: number of participants
Procedure: The safety and tolerability of these agents used in this context was secondarily explored, and pain sensitisation measures were assessed.
as §1

hand OA participants [5] = details: per-protocol; for Hospital Anxiety and Depression Scale Depression Mean diff (95% CI): baseline to 90 days; for Hospital Anxiety and Depression Scale Anxiety Baseline (95% CI): listed as head as printed; for Hospital Anxiety and Depression Scale Anxiety: listed as head prints only 'Anxiety'
Source text: Additional secondary outcomes included the Numerical Rating Scale (NRS) pain rating 0-10, the Hospital Anxiety and Depression Scale (HADS) (Bjelland et al., Journal of Psychosomatic Research. 2002; 52(2): 69-77) and pain sensitisation measures in the three treatment groups at baseline and at week 13.

primary hand OA = details: Basoki et al., Ann Rheum Dis 2015; cited from earlier work
[6] = number of adverse events recorded in treatment group

Structure (SMILES)	Numerical Rating Scale (NRS) 90 days (95% CI) (hand OA participants [1])	Numerical Rating Scale (NRS) Baseline (95% CI) (hand OA participants [1])	Numerical Rating Scale (NRS) Mean diff (95% CI) (hand OA participants [1])	AUSCAN pain score 90 days (95% CI) (hand OA participants [2])	AUSCAN pain score Baseline (95% CI) (hand OA participants [2])	AUSCAN function 90 days (95% CI) (hand OA participants [2])	AUSCAN stiffness 90 days (95% CI) (hand OA participants [2])	AUSCAN function Baseline (95% CI) (hand OA participants [2])	AUSCAN stiffness Baseline (95% CI) (hand OA participants [2])	AUSCAN function Mean diff (95% CI) (hand OA participants [2])	AUSCAN stiffness Mean diff (95% CI) (hand OA participants [2])	AUSCAN pain score Mean diff (95% CI) (hand OA participants [2])	Consumption of rescue medication (total) (hand OA participants [3]) [days]	Average use of paracetamol as rescue medication compared with placebo (hand OA participants [3])	Side effects: Total (adverse events recorded) (hand OA participants [4])	Side effects: Cardiovascular (hand OA participants [4]; [6])	Side effects: Digestive (hand OA participants [4]; [6])	Side effects: Mental (hand OA participants [4]; [6])	Side effects: Nervous system, Dizziness (hand OA participants [4]; [6])	Side effects: Nervous system, Dry mouth (hand OA participants [4]; [6])	also measured
CNCC[C@H](Oc1cccc2ccccc12)c1cccs1 [Duloxetine]	4.3 (2.6 to 5.9)	6.6 (5.7 to 7.4)	−2.3 (−3.8 to −0.9)	248.1 (162.3 to 333.9)	310.6 (254.3 to 367.0)	496.4 (342.4 to 650.5)	48.3 (29.9 to 66.6)	598.3 (481.2 to 715.3)	61.8 (45.8 to 77.8)	−101.9 (−248.4 to −44.8)	−13.5 (26.5 to −0.6)	−62.5 (−141.6 to 16.6)	5	much lower	57	2	18	9	3	6	Efficacy for pain outcomes in knee OA (knee OA): shown efficacy for pain outcomes in knee OA; Significant improvement in AUSCAN pain, stiffness or function compared with placebo (hand OA participants [2]; baseline to 13 weeks, result in words): Significant improvement in AUSCAN pain, stiffness or function were not observed; AUSCAN pain score Mean diff (95% CI) (hand OA participants [2]; listed as duloxetine): −62.5; Side effects: ENT (hand OA participants [4]; [6]): 2; Side effects: Nervous system, Headaches (hand OA participants [4]; [6]): 8; Side effects: Nervous system, Sleepiness (hand OA participants [4]; [6]): 3; Side effects: Ophthalmological (hand OA participants [4]; [6]): 2; Side effects: Respiratory (hand OA participants [4]; [6]): 3; Side effects: Skin (hand OA participants [4]; [6]): 1; Participants discontinuing treatment / withdrawing because of (serious) adverse events (hand OA participants [4]): 2; Hospital Anxiety and Depression Scale Depression 90 days (95% CI) (hand OA participants [5]): 3.8 (1.9 to 5.7); Hospital Anxiety and Depression Scale Depression Baseline (95% CI) (hand OA participants [5]): 4.1 (2.3 to 5.9); Hospital Anxiety and Depression Scale Depression Mean diff (95% CI) (hand OA participants [5]): −0.3 (−1.8 to 1.2); Hospital Anxiety and Depression Scale Anxiety Baseline (95% CI) (hand OA participants [5]): 4.3 (2.2 to 6.3); Hospital Anxiety and Depression Scale Anxiety (hand OA participants [5]): 5.6 (3.6 to 7.5)
CC(C)C[C@H](CN)CC(=O)O [Pregabalin, (3S)-3-(aminomethyl)-5-methylhexanoic acid]	3.4 (2.4 to 4.4)	6.1 (5.4 to 6.7)	−2.7 (−3.5 to −1.9)	176.5 (123.9 to 229.1)	308.5 (262.6 to 354.5)	362.2 (281.7 to 442.7)	36.5 (23.0 to 49.9)	608.5 (541.3 to 675.7)	59.9 (51.8 to 67.9)	−246.3 (−341.7 to −151.0)	−23.4 (−35.7 to −11.1)	−132.0 (−181.1 to −82.9)	9	much lower	55	3	7	9	7	6	AUSCAN pain score Mean diff (95% CI) (hand OA participants [2]; listed as pregabalin): −132.0; Dose giving maximum analgesic and functional improvement effect (AUSCAN trajectory, FIG. 3) (hand OA participants [2]; result in words): maximum analgesic and functional improvement effect at the higher dose of 300 mg; Side effects: Genitourinary (hand OA participants [4]; [6]): 1; Side effects: Nervous system, Headaches (hand OA participants [4]; [6]): 3; Side effects: Nervous system, Loss of balance (hand OA participants [4]; [6]): 7; Side effects: Nervous system, Sleepiness (hand OA participants [4]; [6]): 5; Side effects: Ophthalmological (hand OA participants [4]; [6]): 4; Side effects: Respiratory (hand OA participants [4]; [6]): 2; Participants discontinuing treatment / withdrawing because of (serious) adverse events (hand OA participants [4]): 4; Hospital Anxiety and Depression Scale Depression 90 days (95% CI) (hand OA participants [5]): 4.1 (2.6 to 5.6); Hospital Anxiety and Depression Scale Depression Baseline (95% CI) (hand OA participants [5]): 5.1 (3.3 to 6.9); Hospital Anxiety and Depression Scale Depression Mean diff (95% CI) (hand OA participants [5]): −1.1 (−2.1 to −0.02); Hospital Anxiety and Depression Scale Anxiety Baseline (95% CI) (hand OA participants [5]): 5.2 (2.9 to 7.5); Hospital Anxiety and Depression Scale Anxiety (hand OA participants [5]): 6.1 (3.8 to 8.3)
CCN(CCO)CCCC(C)Nc1ccnc2cc(Cl)ccc12 (stereo not shown) [hydroxychloroquine]																					Pain reduction compared to placebo in primary hand OA (primary hand OA): did not reduce pain compared to placebo
